In patent publication US8716242B2, “β-hairpin peptidomimetics” (priority 2009, dated 2014):
Numbered stars: 1 amine (or outer) side, 2 acyl side, 3 side chain; on linkers, the order of the positions; unused ones are H or OH. Bridge positions count the residues as written; N and C are the ends. Square brackets hold non-standard residues; d marks the D form. Side chains are listed from the residue outwards. Peptide text beside a SMILES is read from it. * marks the point of attachment. γGlu = O=C(O)[C@H](CCC(=O)[*:2])N[*:1]; Palmitoyl = CCCCCCCCCCCCCCCC(=O)*; Myristoyl = CCCCCCCCCCCCCC(=O)*; Lauroyl = CCCCCCCCCCCC(=O)*; Dab = NCC[C@H](N)C(=O)O

How the values were obtained:
[1] = Cytotoxicity, MTT reduction assay, COS-7 cells; assay type: cell-based; settings: African green monkey, COS-7 cells (CRL-1651), 12.5-50 μM
How it was run: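 HELA (4000/well) and COS-7 (3400/well) cells were grown 24 h, then exposed 48 h at 37° C to peptides at 12.5, 25 and 50 μM in triplicate. MTT reduction read at 595 nm; growth % relative to time-zero, and GI50 interpolated by trend line.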

[2] = test system: human red blood cells (hRBC); assay: Hemolysis of human red blood cells; assay type: cell-based; settings: 20% hRBC, 1 h, 37° C.
How it was run: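 Washed fresh human erythrocytes (20% v/v, ~0.9×10^9 cells/mL final) incubated with compound at 100 μM for 1 h at 37 °C with shaking. Supernatant OD540 read; % hemolysis expressed relative to 2.5% Triton X-100 lysis (100%), with PBS/0.001% acetic acid as 0%.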

In the case of `CCCCCCCCCCCC(=O)NCCCC[C@@H]1NC(=O)[C@H](Cc2ccc(O)cc2)NC(=O)[C@@H]2CSSC[C@H](NC(=O)[C@H](C)NC(=O)[C@H](Cc3c[nH]cn3)NC(=O)[C@H](Cc3ccc(O)cc3)NC(=O)[C@@H]3CCCN3C(=O)[C@H]3CCCN3C(=O)[C@H](CCCCN)NC1=O)C(=O)N[C@@H](CCCNC(=N)N)C(=O)N[C@@H](C)C(=O)N1CCC[C@@H]1C(=O)N[C@@H](CCN)C(=O)N[C@@H](CCCNC(=N)N)C(=O)N[C@@H](Cc1ccc(O)cc1)C(=O)N2` [Ex. 17] (cyclo(YHACRA[dP][Dab]RYCYK(Lauroyl)K[dP]P); disulfide 4-11), the GI50 at 48 h [1] is reported as greater than 50 µM and the “Hemolysis at 100 μM” value [2] is reported as 4.3%.

In the case of `CCCCCCCCCCCCCCCC(=O)NCCCC[C@@H]1NC(=O)[C@H](Cc2ccc(O)cc2)NC(=O)[C@@H]2CSSC[C@H](NC(=O)[C@H](Cc3ccc(O)cc3)NC(=O)[C@H](Cc3c[nH]cn3)NC(=O)[C@H](Cc3ccc(O)cc3)NC(=O)[C@@H]3CCCN3C(=O)[C@H]3CCCN3C(=O)[C@H](CCCCN)NC1=O)C(=O)N[C@@H](CO)C(=O)N[C@@H](C)C(=O)N1CCC[C@@H]1C(=O)N[C@@H](CCN)C(=O)N[C@@H](CCCNC(=N)N)C(=O)N[C@@H](Cc1ccc(O)cc1)C(=O)N2` [Ex. 20] (cyclo(YHYCSA[dP][Dab]RYCYK(Palmitoyl)K[dP]P); disulfide 4-11), the GI50 at 48 h [1] is reported as greater than 50 µM and the “Hemolysis at 100 μM” value [2] is reported as 9.1%.

With `CCCCCCCCCCCC(=O)N[C@@H](CCC(=O)NCCCC[C@@H]1NC(=O)[C@H](Cc2ccc(O)cc2)NC(=O)[C@@H]2CSSC[C@H](NC(=O)[C@H](Cc3ccc(O)cc3)NC(=O)[C@H](Cc3c[nH]cn3)NC(=O)[C@H](Cc3ccc(O)cc3)NC(=O)[C@@H]3CCCN3C(=O)[C@H]3CCCN3C(=O)[C@H](CCCCN)NC1=O)C(=O)N[C@@H](CO)C(=O)N[C@@H](C)C(=O)N1CCC[C@@H]1C(=O)N[C@@H](CCN)C(=O)N[C@@H](CCCNC(=N)N)C(=O)N[C@@H](Cc1ccc(O)cc1)C(=O)N2)C(=O)O` [Ex. 25] (cyclo(YHYCSA[dP][Dab]RYCYK([γGlu-Lauroyl])K[dP]P); disulfide 4-11) the GI50 at 48 h [1] was greater than 50 µM and the “Hemolysis at 100 μM” value [2] was 1.0%.

For `CCCCCCCCCCCC(=O)N[C@@H](CCC(=O)NCCCC[C@@H]1NC(=O)[C@H](Cc2ccc(O)cc2)NC(=O)[C@@H]2CSSC[C@H](NC(=O)[C@H](C)NC(=O)[C@H](Cc3c[nH]cn3)NC(=O)[C@H](Cc3ccc(O)cc3)NC(=O)[C@@H]3CCCN3C(=O)[C@H]3CCCN3C(=O)[C@H](CCCCN)NC1=O)C(=O)N[C@@H](CCCNC(=N)N)C(=O)N[C@@H](C)C(=O)N1CCC[C@@H]1C(=O)N[C@@H](CCN)C(=O)N[C@@H](CCCNC(=N)N)C(=O)N[C@@H](Cc1ccc(O)cc1)C(=O)N2)C(=O)O` [Ex. 26] (cyclo(YHACRA[dP][Dab]RYCYK([γGlu-Lauroyl])K[dP]P); disulfide 4-11), the GI50 at 48 h [1] was greater than 50 µM and the “Hemolysis at 100 μM” value [2] was 1.2%.

For `CCCCCCCCCCCCCC(=O)N[C@@H](CCC(=O)NCCCC[C@@H]1NC(=O)[C@H](Cc2ccc(O)cc2)NC(=O)[C@@H]2CSSC[C@H](NC(=O)[C@H](Cc3ccc(O)cc3)NC(=O)[C@H](Cc3c[nH]cn3)NC(=O)[C@H](Cc3ccc(O)cc3)NC(=O)[C@@H]3CCCN3C(=O)[C@H]3CCCN3C(=O)[C@H](CCCCN)NC1=O)C(=O)N[C@@H](CO)C(=O)N[C@@H](C)C(=O)N1CCC[C@@H]1C(=O)N[C@@H](CCN)C(=O)N[C@@H](CCCNC(=N)N)C(=O)N[C@@H](Cc1ccc(O)cc1)C(=O)N2)C(=O)O` [Ex. 28] (cyclo(YHYCSA[dP][Dab]RYCYK([γGlu-Myristoyl])K[dP]P); disulfide 4-11), the GI50 at 48 h [1] was greater than 50 µM and the “Hemolysis at 100 μM” value [2] was 1.9%.

For `CCCCCCCCCCCCCCCC(=O)N[C@@H](CCC(=O)NCCCC[C@@H]1NC(=O)[C@H](Cc2ccc(O)cc2)NC(=O)[C@@H]2CSSC[C@H](NC(=O)[C@H](Cc3ccc(O)cc3)NC(=O)[C@H](Cc3c[nH]cn3)NC(=O)[C@H](Cc3ccc(O)cc3)NC(=O)[C@@H]3CCCN3C(=O)[C@H]3CCCN3C(=O)[C@H](CCCCN)NC1=O)C(=O)N[C@@H](CO)C(=O)N[C@@H](C)C(=O)N1CCC[C@@H]1C(=O)N[C@@H](CCN)C(=O)N[C@@H](CCCNC(=N)N)C(=O)N[C@@H](Cc1ccc(O)cc1)C(=O)N2)C(=O)O` [Ex. 29] (cyclo(YHYCSA[dP][Dab]RYCYK([γGlu-Palmitoyl])K[dP]P); disulfide 4-11), the GI50 at 48 h [1] was greater than 50 µM and the “Hemolysis at 100 μM” value [2] was 5.4%.
